Results published in ChEMBL document CHEMBL1157539, “Thousands of chemical starting points for antimalarial lead identification” (Nature, 2010).

Tested on: Plasmodium falciparum
Experiment: GSK_TCMDC: Inhibition of Plasmodium falciparum 3D7 in whole erythrocytes, using parasite LDH activity as an index of growth.
Assay type: functional, organism-based
Settings: Plasmodium falciparum, 3D7

COc1ccc2c(N/N=C/c3ccc([N+](=O)[O-])cc3)ccnc2c1
XC50: 337 nM

Cc1ccc2c(=O)cc(CCc3cccc(F)c3F)n(CC(=O)N(Cc3ccc(-c4ccc(C(F)(F)F)cc4)cc3)C3CCN(C)CC3)c2n1
XC50: 1260 nM

COc1c(C)[nH]c(C)c(-c2ccc(Oc3cccc(C(F)(F)F)c3)cc2)c1=O
XC50: 314 nM

COc1ccc2nc(C)cc(Nc3ccc(Oc4ccc(Cl)cc4)c(Cl)c3)c2c1
XC50: 191 nM

Cc1[nH]c(C)c(-c2ccc(-c3ccccc3F)nc2)c(=O)c1Br
XC50: 401 nM

CCCCCCN1CCC(CNCc2cccc([N+](=O)[O-])c2)CC1
XC50: 720 nM

CC[C@H](N/C(=N\c1cccc(Cl)c1Cl)Nc1ccc(C#N)cc1O)c1ccccc1
XC50: 815 nM

Cc1cc(N2CCCC2)nc(Nc2ccc(NC(=O)C(C)Oc3ccccc3)cc2)n1 (stereo unspecified)
XC50: 1140 nM

Cc1ccc2nc3ccccc3c(NCCN3CCN(C)CC3)c2c1
XC50: 587 nM

COc1ccc2nccc([C@@H](O)CN3CCC(NC(=O)C(=Cc4ccc(Cl)cc4Cl)c4ccc(-c5ccccc5)cc4)CC3)c2c1
XC50: 993 nM

COC(=O)c1cc(C(=O)CN(Cc2ccccc2)C(C)C)ccc1O
XC50: 183 nM

Cn1c(Nc2cc(C(C)(C)C)on2)nc2cc(Nc3ccnc(Nc4cccc(S(=O)(=O)N5CCOCC5)c4)n3)ccc21
XC50: 533 nM

COC(=O)CN(C(=O)/C=C/c1ccc(Cl)c(Cl)c1)C1CCC(CN2CCC(c3c[nH]c4ccccc34)CC2)CC1 (stereo unspecified)
XC50: 507 nM

O=C(Nc1ccc2ccccc2c1)N1CCC(NCc2cccc([N+](=O)[O-])c2)CC1
XC50: 855 nM

Cc1ccc(N2CCN(C(=O)c3cccc(-c4cncc5nc(-c6ccco6)n(C)c45)c3)CC2)nc1
XC50: 596 nM

CS(=O)(=O)NCCCNCc1cccc(-c2csc(-c3nc4ccccc4[nH]3)c2)c1
XC50: 1010 nM

CCOc1c(OC)ccc2c1CCN(CCN1CCC(CNC(=O)c3ccc(-c4ccc(C(F)(F)F)cc4)cc3)CC1)C2
XC50: 849 nM

O=C(Nc1ccccc1Br)c1cn(-c2ccccc2)nc1-c1cccc([N+](=O)[O-])c1
XC50: 1320 nM

Cc1cc(NC2CCCC2)nc(Nc2ccccc2C)n1
XC50: 1350 nM

CCOc1ccc(-c2nonc2NC(=O)CC(C)C)cc1OCC
XC50: 977 nM

O=C(Nc1nc2cc(S(=O)(=O)NCc3ccc(Cl)c(Cl)c3)ccc2n1CCCN1CCCC1)c1ccc(Cl)cc1
XC50: 939 nM

O=C(NCCN1CCC(c2ccncc2)CC1)c1ccc(Nc2nccc(Nc3ccc(Oc4ccccc4)cc3)n2)cc1
XC50: 724 nM

COc1ccc(CCc2ccc(-c3c(C)[nH]c(C)c(Cl)c3=O)cc2)cc1
XC50: 15.2 nM

CC1(C)NC(N)=NC(=N)N1OCCCOc1cccc2ccccc12
XC50: 3.2 nM

O=S(=O)(NCCN1CCCC1)c1ccc(-c2ccc(CNCc3ccc(F)cc3)cc2)cc1F
XC50: 1280 nM

COc1ccc2nccc([C@@H](O)CN3CCC(NCC4COc5ccccc5O4)CC3)c2c1 (stereo partly specified)
XC50: 247 nM

COc1ccc(-c2cc(-c3nc4cc(C(=O)N5CCOCC5)ccc4[nH]3)c(=O)n(C)c2)cc1OC
XC50: 863 nM

Cc1nn(-c2ccccc2)nc1C(=O)N(Cc1ccc(-c2ccc(CNCCc3ccc(S(C)(=O)=O)cc3)cn2)cc1)C(C)CN(C)C (stereo unspecified)
XC50: 682 nM

CC(CNc1nc(NCC(c2ccccc2)c2ccccc2)c2nc[nH]c2n1)c1ccccc1 (stereo unspecified)
XC50: 948 nM

Cc1nc(C)c(-c2ccc(Oc3ccc([S+](C)[O-])cc3)cc2)c(O)c1Br (stereo unspecified)
XC50: 765 nM

NS(=O)(=O)c1cccc(Br)c1
XC50: 888 nM

Cc1ccc(Nc2nc(C)cc(NC3CCN(C)CC3)n2)cc1
XC50: 497 nM

N=C(N)NCCCC(=O)NCC(N)=O
XC50: 165 nM

COc1cc2nc(N3CCC(CNC(=O)c4ccc(-c5ccc(-c6noc(C)n6)cc5C)cc4)CC3)nc(N)c2cc1OC
XC50: 215 nM

Cc1cc(N)ncc1-c1ccc(NC(=O)Nc2cc(C(F)(F)F)ccc2F)cc1
XC50: 698 nM

Cc1ccccc1C1CCN(c2ncc(C(=O)Nc3ccccc3)cc2Cl)CC1
XC50: 1010 nM

O=S(=O)(c1ccc2cc[nH]c2c1)N1CCC[C@@H]1CCN1CCC(c2c[nH]c3cnccc23)CC1
XC50: 1020 nM

FC(F)(F)c1cccc(CCNc2nccc(NCc3ccc(Cl)cc3Cl)n2)c1
XC50: 858 nM

COc1ccc(NC(=O)/C=C/c2ccccc2Cl)cc1OCCN1CCC(c2nc3ccccc3[nH]2)CC1
XC50: 858 nM

O=C(Nc1ccc(C(=O)Oc2cccc3ccccc23)cc1)N[C@@H](Cc1ccc(O)cc1)C(=O)NC1CCN(Cc2ccc(O)cc2)C1 (stereo partly specified)
XC50: 906 nM

CCCCCCCN(Cc1ccc(OC(C)(C)C(=O)OCC)cc1)C(=O)Cc1ccc(F)cc1F
XC50: 1030 nM

CC(C)COc1ccc(Cl)cc1Nc1nc(-c2nc3ccccc3[nH]2)cs1
XC50: 877 nM

O=C(NCCCCN1CCC(c2ccc(OC(F)(F)F)cc2)CC1)c1ccc(NC(=O)c2ccc(Cl)cc2)cc1
XC50: 629 nM

O=S(=O)(NCCN1CCCC1)c1cccc(-c2ccc(CNC3Cc4ccccc4C3)cc2)c1
XC50: 660 nM

COc1ccccc1CNC(=O)c1ccc(N2CCN(c3ccncc3)CC2)cn1
XC50: 1360 nM

Cc1cnc(C(=O)Nc2cccc(-c3cccc(-c4nc5cc(F)ccc5[nH]4)c3)c2)cn1
XC50: 771 nM

Fc1ccc2[nH]c(-c3ccc(-c4ccc(CNCC5CCCO5)cc4)cc3)nc2c1 (stereo unspecified)
XC50: 440 nM

COc1ccc(C2C(C(=O)Nc3ccc(C)cc3Br)c3ccccc3C(=O)N2C)cc1 (stereo unspecified)
XC50: 941 nM

Cc1nc(-c2cccc(Nc3nccc(NCC(O)c4cccc(C(F)(F)F)c4)n3)c2)cs1 (stereo unspecified)
XC50: 627 nM

CN(C)CCNC(=O)[C@H](Cc1ccccc1)NC(=O)c1ccc(O)c(-c2ccc(Cl)c(Cl)c2)c1
XC50: 715 nM

COc1ccc(/N=[N+](\[O-])c2ccccc2/[N+]([O-])=N/c2ccc(OC)cc2)cc1
XC50: 987 nM

CCCCOc1ccc(C(O)C(CN2CCCCC2)c2ccccc2)cc1 (stereo unspecified)
XC50: 893 nM

Cc1cccc2nc(-c3ccc(-c4cccc(NC(=O)Nc5ccccc5)c4)cc3)[nH]c12
XC50: 715 nM

Cc1ccc(NC(=O)c2ccc3ncccc3c2)cc1OC1CCN(CCC(C)C)CC1
XC50: 694 nM

O=C(N[C@H]1CCN(Cc2ccc(OC3CCN(Cc4ccccc4)CC3)cc2)C1)c1ccc(Cl)c(Cl)c1
XC50: 728 nM

CCCCCCCN1CC[C@@H](CCC(O)c2ccnc3ccc(OC)cc23)[C@@H](CC)C1 (stereo partly specified)
XC50: 754 nM

Cc1cccc2nc(-c3cccc(-c4cccc(CNCCc5ccncc5)c4)c3)[nH]c12
XC50: 139 nM

Cc1[nH]n(-c2cccc(C(F)(F)F)c2)c(=O)c1-c1ccc(Cl)cc1
XC50: 856 nM

CCOC(=O)c1ccc2[nH]c(-c3ccc(C(=O)NCc4ccc(C(C)(C)C)cc4)cc3)nc2c1
XC50: 847 nM

Cn1cc(CN2CCC(OC(c3ccccc3)c3ccc(Cl)cc3)CC2)cn1 (stereo unspecified)
XC50: 839 nM

COc1cc(-c2cc3cc(Cl)c(Cl)cc3[nH]2)ccc1C(=O)NCCC1CCCN1C (stereo unspecified)
XC50: 969 nM

CC1(C)NC(N)=NC(=N)N1OCCCOc1ccccc1Cl
XC50: 3.2 nM

CCn1c(-c2nonc2N)nc2c(-c3cccc(NC(=O)Nc4ccccc4Cl)c3)ncc(OCCCN)c21
XC50: 671 nM

COCCNCc1cccc(-c2ccc3c(Nc4cc(O)c(Cl)cc4F)ccnc3c2)c1
XC50: 114 nM

O=C(Nc1cccc(-c2cccc(CN3CCCC3)c2)c1)c1ccc(Cl)cc1
XC50: 684 nM

COCCN1CCC(CNCC(C)(C)c2nc(-c3ccc(Cl)c(O)c3)c(-c3ccncc3)[nH]2)CC1
XC50: 753 nM

N#CCOc1c(C2CCN(CCCCNC(=O)c3ccc(-c4ccc(C(F)(F)F)cc4)cc3)CC2)ccc2c1CCCC2
XC50: 762 nM

Cc1cc(-c2ccnc(Nc3cccc(C#N)c3)n2)cc(C)c1O
XC50: 924 nM

CCN1CCN(C(=O)NC(C(=O)N2CCCC(COc3ccc(Cc4ccccc4)cc3)C2)c2cccs2)C(=O)C1=O (stereo unspecified)
XC50: 479 nM

O=C(Cc1ccc(Nc2nccc(Nc3cccc4[nH]ncc34)n2)cc1)Nc1ccc(C(F)(F)F)cc1
XC50: 888 nM

c1ccc(CN2CCC(NCc3ccccc3-c3cccc(CNCc4ccc5c(c4)OCO5)c3)CC2)cc1
XC50: 573 nM

COc1cc(NC(=O)c2sc(-c3ccc(Cl)cc3)cc2NC(=O)CN2CCCC2)ccc1OCCN1CCCC1
XC50: 927 nM

COc1ccc(CN2CCN(C(=O)c3cccs3)CC2)c(O)c1
XC50: 838 nM

COc1cc(Nc2nccc(N3CCC(NS(=O)(=O)c4ccc(NC(C)=O)cc4)CC3)n2)cc(OC)c1OC
XC50: 965 nM

COc1cc(SC)c(Br)cc1-c1nc2ccncc2[nH]1
XC50: 1100 nM

CCn1c(-c2nonc2N)nc2c(-c3cccc(NC(=O)Nc4cccc(OC)c4)c3)ncc(OCCCN)c21
XC50: 769 nM

CN1CCN(CCCN(C(=O)Nc2cc(C(F)(F)F)cc(C(F)(F)F)c2)c2ccccc2Cc2ccccc2)CC1
XC50: 1130 nM

COc1ccc2ccc(OC)c(CNCCCCCCNCc3c(OC)ccc4ccc(OC)cc34)c2c1
XC50: 699 nM

CCOC(=O)C(CO)NC(=O)c1ccc([N+](=O)[O-])o1 (stereo unspecified)
XC50: 289 nM

Cc1ccc2oc3cc(-c4nnn[nH]4)ccc3c(=O)c2c1
XC50: 89.4 nM

Cc1ccc(CN2CCN(c3cc4c(cc3Cl)CCN4C(=O)Cc3ccc(NC(=O)c4ccc(C(F)(F)F)cc4)cc3)CC2)cc1
XC50: 935 nM

O=C1C(c2ccccc2)=C(Nc2cccc([N+](=O)[O-])c2)c2ccccc21
XC50: 892 nM

O=C(Nc1cccnc1)c1cc(C(=O)Nc2cccnc2)cc([N+](=O)[O-])c1
XC50: 1120 nM

CCCNC[C@@H](O)[C@H](Cc1ccccc1)NC(=O)c1cc2c3c(c1)c(CC)cn3CCS(=O)(=O)N2C
XC50: 101 nM

CCCc1cn2c3c(cc(C(=O)N[C@@H](Cc4ccccc4)[C@H](O)CNC4CCCCC4)cc13)N(C)S(=O)(=O)CC2
XC50: 66.9 nM

COc1cc(Cc2c(C)nc3nc(N)nc(N)c3c2C)c(Br)c(OC)c1OC
XC50: 404 nM

Cc1cccc2nc(-c3cccc(-c4cccc(NC(=O)c5cncn5C)c4)c3)[nH]c12
XC50: 167 nM

N=C(Nc1ccccc1)Nc1cccc(Cc2ccc([N+](=O)[O-])cc2)n1
XC50: 945 nM

Cc1cccc2nc(-c3cccc(-c4cccc(NC(=O)CC5NC(=O)c6ccccc65)c4)c3)[nH]c12 (stereo unspecified)
XC50: 1030 nM

O=C(Nc1cccc(Cl)c1)N(CCCn1ccnc1)Cc1csc(-c2ccc(CNCc3ccccc3)cc2)n1
XC50: 538 nM

COC(C(=O)OCCC1CCCN1C)(c1ccccc1)c1ccccc1 (stereo unspecified)
XC50: 970 nM

CC(C)CNC(=O)c1ccnc(-c2ccc(CNC3Cc4ccccc4C3)cc2)c1
XC50: 790 nM

O=C(CCC1CCCCC1=O)c1ccccc1 (stereo unspecified)
XC50: 766 nM

O=C(Nc1ccc(S(=O)(=O)NCCCN2CCOCC2)cc1)c1cc(-c2ccccc2)[nH]n1
XC50: 769 nM

c1ccc(CCNCc2cccc(-c3ccccc3CNCc3ccc4c(c3)OCO4)c2)nc1
XC50: 968 nM

Clc1cccc(C23N/C(=N\c4nc5ccccc5[nH]4)NC2(c2ccccc2)N/C(=N\c2nc4ccccc4[nH]2)N3)c1 (stereo unspecified)
XC50: 519 nM
